Patent US7361659B2, “Pyrrazolo-pyrimidine derivatives” (Hoffmann-La Roche Inc., priority 2005, dated 2008)

Columns and labels:
rat mGlu2 receptor = target: T1, rat mGlu2 receptor (Rattus norvegicus, UniProt P31421); test: [3H]-LY354740 binding on mGlu2 transfected CHO cell membranes; conditions: 10 nM [3H]-LY354740, membranes of CHO cells transfected with rat mGlu2, room temperature, 1 hour
T1 construct: expressed in transfected cells; membranes prepared
Text: [^3H]-LY354740 Binding on mGlu2 Transfected CHO Cell Membranes. Transfection and Cell Culture
cDNA encoding the rat mGlu2 receptor protein in pBluescript II was subcloned into the eukaryotic expression vector pcDNA I-amp from Invitrogen Ltd (Paisley, UK). This vector construct (pcD1mGR2) was co-transfected with a psvNeo plasmid encoding the gene for neomycin resistance, into CHO cells by a modified calcium phosphate method described by Chen & Okayama (1988). The cells were maintained in Dulbecco's Modified Eagle medium with reduced L-glutamine (2 mM final concentration) and 10% dialysed foetal calf serum from Gibco-Invitrogen (Carlsbad, Calif., USA). Selection was made in the presence of G-418 (1000 ug/ml final) and […]. Clones were identified by reverse transcription of 5 μg total RNA, followed by PCR mGlu2 receptor specific primers 5′-[…]-3′ and 5′-[…]-3′in 60 mM Tris HCl (pH 10), 15 mM (NH4)2SO4, 2 mM MgCl2, 25 units/ml Taq Polymerase with 30 cycles annealing at 60° C. for 1 min., extention at 72° C. for 30 s, and 1 min. 95° C. denaturation.
Cells, cultured as above, were harvested and washed three times with cold PBS and frozen at −80° C. The pellet was resuspended in cold 20 mM HEPES-NaOH buffer containing 10 mM EDTA (pH 7.4), and homogenised with a polytron (Kinematica, AG, Littau, Switzerland) for 10 s at 10 000 rpm. After centrifugation for 30 min. at 4° C., the pellet was washed once with the same buffer, and once with cold 20 mM HEPES-NaOH buffer containing 0.1 mM EDTA, (pH 7.4). Protein content was measured using the micro BCA method from Pierce-Perbio (Rockford, Ill., USA) using bovine serum albumin as standard.
After thawing, the membranes were resuspended in cold 50 mM Tris-HCl buffer containing 2 mM MgCl2 (pH 7) (binding buffer). The final concentration of the membranes in the assays was 25 μg protein/ml. Inhibition experiments were performed with membranes incubated with 10 nM [^3H]-LY354740 at room temperature, for 1 hour, in presence of various concentrations of the compound to be tested. Following the incubations, membranes were filtered onto Whatmann GF/B glass fiber filters and washed 5 times with cold binding buffer. Non specific binding was measured in the presence of 10 μM DCG IV. After transfer of the filters into plastic vials containing 10 ml of Ultima-gold scintillation fluid from Perkin-Elmer(Boston, Mass., USA), the radioactivity was measured by liquid scintillation in a Tri-Carb 2500 TR counter (Packard, Zürich, Switzerland).
The inhibition curves were fitted with a four parameter logistic equation giving IC50 values, and Hill coefficients.

T1 sequence (P31421 19-872): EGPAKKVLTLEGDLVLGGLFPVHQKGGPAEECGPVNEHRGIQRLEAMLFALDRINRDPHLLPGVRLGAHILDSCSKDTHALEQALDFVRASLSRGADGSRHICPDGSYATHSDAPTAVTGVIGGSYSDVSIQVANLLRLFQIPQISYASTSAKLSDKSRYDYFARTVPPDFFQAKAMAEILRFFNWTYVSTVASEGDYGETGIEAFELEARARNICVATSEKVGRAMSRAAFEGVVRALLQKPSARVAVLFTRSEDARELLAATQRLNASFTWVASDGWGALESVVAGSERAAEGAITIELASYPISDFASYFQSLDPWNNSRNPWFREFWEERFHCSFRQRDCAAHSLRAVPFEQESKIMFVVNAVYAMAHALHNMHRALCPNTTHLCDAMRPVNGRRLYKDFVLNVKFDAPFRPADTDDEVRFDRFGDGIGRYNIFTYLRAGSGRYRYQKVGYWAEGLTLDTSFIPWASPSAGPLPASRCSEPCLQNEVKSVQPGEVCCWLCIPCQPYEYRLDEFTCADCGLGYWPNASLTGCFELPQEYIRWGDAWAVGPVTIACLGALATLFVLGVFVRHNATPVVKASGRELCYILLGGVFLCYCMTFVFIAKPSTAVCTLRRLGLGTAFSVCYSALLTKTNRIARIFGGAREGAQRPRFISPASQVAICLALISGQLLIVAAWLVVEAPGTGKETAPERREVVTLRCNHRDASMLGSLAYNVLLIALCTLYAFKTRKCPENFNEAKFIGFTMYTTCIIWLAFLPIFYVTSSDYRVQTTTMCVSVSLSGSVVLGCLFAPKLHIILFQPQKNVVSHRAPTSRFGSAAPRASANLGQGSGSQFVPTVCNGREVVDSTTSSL

| Ki (rat mGlu2 receptor) [µM] | melting point [°C] | SMILES |
| --- | --- | --- |
| 0.0069 | 275 | NS(=O)(=O)c1cc(NC(=O)c2cnn3c(C(F)(F)F)cc(-c4ccc(C(F)(F)F)cc4)nc23)c(Cl)s1 [Example 2, 7-Trifluoromethyl-5-(4-trifluoromethyl-phenyl)-pyrazolo[1,5-a]pyrimidine-3-carboxylic acid (2-chloro-5-sulfamoyl-thiophen-3-yl)-amide] |
| 0.142 | 284 | NS(=O)(=O)c1nnc(NC(=O)c2cnn3c(C(F)F)cc(-c4ccc(C(F)(F)F)cc4)nc23)s1 [Example 3, 7-Difluoromethyl-5-(4-trifluoromethyl-phenyl)-pyrazolo[1,5-a]pyrimidine-3-carboxylic acid (5-sulfamoyl-[1,3,4]thiadiazol-2-yl)-amide] |
| 0.0025 | 303 | Cc1nc(NC(=O)c2cnn3c(C(F)(F)F)cc(-c4ccc(C(F)(F)F)cc4)nc23)sc1S(N)(=O)=O [Example 8, 7-Trifluoromethyl-5-(4-trifluoromethyl-phenyl)-pyrazolo[1,5-a]pyrimidine-3-carboxylic acid (4-methyl-5-sulfamoyl-thiazol-2-yl)-amide] |
| 0.027 | 217 | O=C(Nc1cc(S(=O)(=O)N(CCO)CCO)sc1Cl)c1cnn2c(C(F)(F)F)cc(-c3ccc(C(F)(F)F)cc3)nc12 [Example 35, 7-Trifluoromethyl-5-(4-trifluoromethyl-phenyl)-pyrazolo[1,5-a]pyrimidine-3-carboxylic acid {5-[bis-(2-hydroxy-ethyl)-sulfamoyl]-2-chloro-thiophen-3-yl}-amide] |
|  | 195 | NCCNS(=O)(=O)c1cc(NC(=O)c2cnn3c(C(F)(F)F)cc(-c4ccc(C(F)(F)F)cc4)nc23)c(Cl)s1 [Example 78, 7-Trifluoromethyl-5-(4-trifluoromethyl-phenyl)-pyrazolo[1,5-a]pyrimidine-3-carboxylic acid [5-(2-amino-ethylsulfamoyl)-2-chloro-thiophen-3-yl]-amide] |
